Where two headings read alike, the source gives them in different places.
Assays:
[1] = test system: HSV-2 (strain MS); experiment: HSV-β-gal assay: transient expression of beta-galactosidase in transfected HeLa cells superinfected with HSV-2; assay type: cell-based; details: Human alphaherpesvirus 2, HeLa, 24 h, inhibition of beta-galactosidase expression, MOI 5 pfu/cell, read-out: ANTI-HSV ACTIVITY HSV-β-GAL ASSAY IC50
Procedure: HeLa and Vero cell cultures were maintained in Eagle's Minimal Essential Medium (EMEM) which was supplemented with glutamine, penicillin, streptomycin and 10% fetal calf serum (10% EMEM). Stock cultures of HSV-2 (strain MS available from ATCC VR-540) were grown in and harvested from Vero cells. Viral stocks were titered in Vero cells according to established procedures.
Plasmid pON 245^ori- contains the promoter of the HSV-1 thymidine kinase (tk) gene located immediately 5' of the E. coli lac Z gene. In this arrangement, the tk promoter controls transcription from the bacterial gene in transient expression assays. Additionally, an SV40 polyadenylation signal is present at the 3'-end of the lac Z gene to allow for the efficient translation of the mRNA in eucaryotic cells. The expression of beta-galactosidase in a transient assay using pON 245^ori- is dependent upon superinfection of the transfected cells with HSV. […] For example, see European Patent Application No. 8302149.5 filed Mar. 11, 1988 and published Sep. 14th 1988 as 282,330, the disclosure of which is incorporated herein by reference thereto.
HeLa cells were seeded into 96 well microtiter plates and allowed to grow to 80% confluency (approximately 35000 cells/well). One half microgram of plasmid pON 245^ori- DNA was introduced into the cells of each well by the […] precipitation technique (Grahman and Van der Eb, 1973). Four to six hours later, the cells were rinsed with Hank's Balanced Salt Solution (HBSS), overlaid with 10% EMEM and incubated at 37° C. At 24 hour post-transfection, cells were rinsed, overlaid with 10% EMEM again and re-incubated at 37° C. At 48 hours. post-transfection, cells were rinsed and overlaid with either EMEM containing 2% fetal calf serum (2% EMEM), 2% EM EM containing HSV-2 (strain MS, Multiplicity of Infection [moil =5 pfu/cell) or 2% EMEM containing HSV-2 and the appropriate concentration of the compound to be tested. Twenty-four hours later, the cells were harvested and assayed for beta-galactosidase activity as described below.
(§1) All determinations of beta-galactosidase activity were performed in 96 well microtiter plates. The intracellular level of beta-galactosidase activity in each well was determined from cell lysates of the monolayer cultures. Aliquots were assayed by incubation in the presence of beta-galactosiclasesubstrate, 4-methyl-umbelliferyl-β-D-galactoside (MUG, 125 μg/ml, Sigma), for 2 hour. The generation of fluorescent product was quantified on a Microfluor microfluorimeter (Dynatech) after addition of 0.1M glycine, pH 10.3 (Spaete and Mocarski, 1985). The inhibitory activity of a compound was plotted versus the concentration and an IC50 value (the concentration of compound required to reduce beta-galactosidase expression by 50%) was obtained for each compound tested.
Anti-HSV activity refers to the IC50 values in the HSV-β-gal assay which measures anti-viral activity in terms of inhibition of beta-galactosidase expression. The IC50 values refer to the concentration of the compound in micrograms/milliliter needed to reduce beta-galactosidase expression by 50%.

[2] = Compound toxicity assay: 3H-leucine incorporation (translational activity) in HeLa cells; assay type: cell-based; details: human, reduction of leucine incorporation, read-out: CYTOTOXICITY 3H-LEU ASSAY IC50
Procedure: HeLa cells were treated with inhibitory compound for 24 hours, after which levels of translational activity were assayed.
For assay of translational activity, HeLa cultures were grown to 80% confluency in 96 well microtiter plates, treated with appropriate concentrations of compound in 2% EMEM during an overnight incubation at 37° C., then rinsed with HBSS and overlaid with […] of 2% EMEM containing 8 μCi of tritiated leucine (141 Cμ/mMol, Amersham Corp., Arlington Heights Ill.). After a 1 hour incubation at 36.5° C., the cells were rinsed twice with phosphate buffered saline (PBS) and lysed in 400 μl/well of 1×PBS, 0.5% sodium dodecyl sulphate (SDS). After a 10 min incubation at 36.5° C., the contents of the well were transferred to a well in a Millititer HA microfiltration plate (Millipore Corp., Bedford, Mass.). The TCA-insoluble proteins were precipitated onto the filter disc by a 10-minute-fixation with 5% TCA, followed by filtration under vacuum and three 10-minute-rinses with 95% ethanol. The filters were dried at room temperature, cut from the millititer plate and transferred to scintillation vials. TCA precipitable counts were assayed in 5 ml of Scintisol (Isolab, Akron, Ohio). The inhibitory activity of a compound was plotted versus the concentration and an IC50 value (that concentration of the compound required to decrease cellular translational activity by 50%) was derived for each compound.
Cytotoxicity refers to the IC50 values in the 3H-leucine (3H-Leu) incorporation. The IC50 values in this test refer to the concentration of the compound in micrograms/milliliter which reduces leucine incorporation by 50%.

[3] = test system: HSV-2, strain MS; experiment: Prophylactic guinea pig model of HSV-2 infection; assay type: in vivo; details: test compounds 60 mg/kg s.c., T.I.D., 10 days, from 24 hours before infection; for MLS (Maximum Lesion Scores): scale of 1 (least) to 4 (severe), placebo 3; for NEUROLOGICAL DYSFUNCTIONS (percentage animals developing loss of bladder/hindlimb control): placebo 87
Procedure: The in vive assessment of anti-HSV efficacy was determined in the prophylactic guinea pig model of HSV infection described by Stansberry et al (1982). Dosing of guinea pigs comprised an initial treatment with test compound given 24 hours prior to virus infection and subsequent administration of the compound every eight hours (T.I.D.) for a total of 10 days. Test compounds were administered subcutaneously in 0.5% buffered methyl celluslose at a dose of 60 mg per kg body weight of the animal. Animals were monitored daily for the development of genital lesions and neurological symptomology, both of which were recorded and compared to the results obtained with parallel groups which received placebo or acyclovir treatment. Efficacy was evaluated for each compound by scoring the ability of the compound to ameliorate genital lesions produced by infection with HSV-2, strain MS, expressed as Maximum Lesion Scores (MLS) on a scale of 1 (least lesion) to 4 (severe lesions).

[4] = test system: CMV (strain Towne); experiment: CMV-β-Gal assay: beta-galactosidase transient expression assay with CMV; assay type: cell-based; details: Human betaherpesvirus 5, read-out: ANTI-CMV ACTIVITY CMV-β-Gal ASSAY IC50, CMV strain Towne
Procedure: as §1
Human foreskin fibroblast (HHF) cell cultures were grown in 10% EMEM. CMV (strain Towne received from Stanford University) was grown and titered in HHF cells. Plasmids pON 249 and pON 241 Δ NH3, containing CMV promoter genes, were used in the β-galactosidase transient expression assay as shown above.

[5] = CMV toxicity assay: tritiated leucine (3H-Leu) assay in HFF cells; assay type: cell-based; details: HFF cells (human foreskin fibroblast); read-out: CYTOTOXICITY 3H-LEU ASSAY IC50
[6] = test system: antiviral activity of lidocaine or lidocaine hydrochloride; details: added to lidocaine or lidocaine hydrochloride; Haines et al.; cited from earlier work
[7] = test system: HSV-1; details: cell culture; Haines et al., U.S. Pat. No. 4,757,088; cited from earlier work
[8] = test system: HSV-2; details: cell culture; Haines et al., U.S. Pat. No. 4,757,088; cited from earlier work
[9] = test system: herpes virus infections; details: mammals; Haines et al.; cited from earlier work
[10] = test system: HSV oral and genital lesions; details: humans; Haines et al.; cited from earlier work

SMILES | IC50 ([1]; *Repeat) [µg/mL] | IC50 ([1]; first value) [µg/mL] | CC50 at 24 h ([2]; *Repeat) [µg/mL] | CC50 at 24 h ([2]; first value) [µg/mL] | also measured
CC(=O)Oc1ccc2c(c1)c(OC(C)=O)c(C(OC(C)=O)OC(C)=O)c(=O)n2Cc1ccccc1 [Formula 1.2] | 2.5 | 3 | 3 | 21.5 | 
Nc1nc2c(ncn2COCCO)c(=O)[nH]1 [Acyclovir, 9-[(2-hydroxyethoxy)methyl]guanine, reference compound] |  |  |  |  | MLS (Maximum Lesion Scores) [3]: 1.5; NEUROLOGICAL DYSFUNCTIONS (percentage animals developing loss of bladder/hindlimb control) [3]: 50%
COc1c(C(OC(C)=O)OC(C)=O)c(=O)n(C)c2ccccc12 [Formula 1.13] |  | 8 |  | 18 | 
CCCCCCn1c(=O)c(C(OC(C)=O)OC(C)=O)c(OC(C)=O)c2cc(C)ccc21 [Formula 1.9] | 8 | 6 | 37 | 32 | MLS (Maximum Lesion Scores) [3]: 2.5; NEUROLOGICAL DYSFUNCTIONS (percentage animals developing loss of bladder/hindlimb control) [3]: 75%
CCC(=O)Oc1c(C(OC(=O)CC)OC(=O)CC)c(=O)n(C)c2ccccc12 [Formula 1.12] | 7 | 8 | 29 | 29 | 
CCCCC(=O)Oc1c(C(OC(=O)CCCC)OC(=O)CCCC)c(=O)n(C)c2ccccc12 [Formula 1.8] | 4 | 5 | > 10 | 30 | 
CC(=O)Oc1c(C(OC(C)=O)OC(C)=O)c(=O)n(-c2ccccc2)c2ccccc12 [Formula 1.7] | 4 | 4 | 18 | 20 | 
COc1ccc(OCCCOCn2c(=O)c(C(OC(C)=O)OC(C)=O)c(OC(C)=O)c3ccccc32)c(Cl)c1 [Formula 1.14] |  | 9 |  | 30 | MLS (Maximum Lesion Scores) [3]: 1.8; NEUROLOGICAL DYSFUNCTIONS (percentage animals developing loss of bladder/hindlimb control) [3]: 12%; IC50 ([4]; first value): 16 µg/mL; IC50 ([4]; second value marked * (repeat)): 18 µg/mL; CC50 [5]: 50 µg/mL
CC(=O)Oc1c(C(OC(C)=O)OC(C)=O)c(=O)n(Cc2ccccc2)c2ccc(OCc3ccccc3)cc12 [Formula 1.15] | 10 | 10 | 40 | 29 | 
CC(C)(CO)[C@@H](O)C(=O)NCCCO [dexpanthenol] |  |  |  |  | enhancement of antiviral activity of lidocaine or lidocaine hydrochloride [6]: significantly enhances the antiviral activity
CC(=O)Oc1c(C(OC(C)=O)OC(C)=O)c(=O)n(Cc2ccccc2)c2ccc(C)cc12 [Formula 1.10] |  | 7 |  | 18 | 
C=CCOC(=O)Cn1c(=O)c(C(OC(C)=O)OC(C)=O)c(OC(C)=O)c2ccccc21 [Formula 1.16] |  | 10 |  | 43 | 
CCCCCCn1c(=O)c(C(OC(C)=O)OC(C)=O)c(OC)c2cc(C)ccc21 [Formula 1.4] |  | 3 |  | 2.5 | 
CC(C)(CO)[C@@H](O)C(=O)NCCC(=O)O [pantothenic acid] |  |  |  |  | enhancement of antiviral activity of lidocaine or lidocaine hydrochloride [6]: significantly enhances the antiviral activity
CCCCCCn1c(=O)c(C(OC(C)=O)OC(C)=O)c(OC)c2ccccc21 [Formula 1.1] |  | 1.4 |  | 6 | 
CC(=O)Oc1c(C(OC(C)=O)OC(C)=O)c(=O)n(C)c2ccccc12 [Formula 1.5] | 3 | 4 | 25 | 25 | MLS (Maximum Lesion Scores) [3]: 1.3; NEUROLOGICAL DYSFUNCTIONS (percentage animals developing loss of bladder/hindlimb control) [3]: 0%
CCCCCCn1c(=O)c(C(OC)OC)c(OC)c2cc(C)ccc21 [Formula 1.17] |  | 5 |  | 30 | 
CCN(CC)CC(=O)Nc1c(C)cccc1C [lidocaine, 2-(diethylamino)-N-(2,6-dimethylphenyl)acetamide] |  |  |  |  | antiviral activity against HSV-1 [7]: is an antiviral agent in cell culture against HSV-1 and HSV-2; antiviral activity against HSV-2 [8]: is an antiviral agent in cell culture against HSV-1 and HSV-2; treatment of herpes virus infections [9]: is able to treat herpes virus infections of mammals; treatment of HSV oral and genital lesions [10]: particularly effective in the treatment of HSV oral and genital lesions in humans
CCCCCCCn1c(=O)c(C(OC(C)=O)OC(C)=O)c(OC(C)=O)c2ccccc21 [Formula 1.11] | 10 | 8 | 43 | 25 | 
COc1c(C(OC(C)=O)OC(C)=O)c(=O)n(Cc2ccccc2)c2ccc(C)cc12 [Formula 1.3] |  | 3 |  | 2.7 | MLS (Maximum Lesion Scores) [3]: 1.8; NEUROLOGICAL DYSFUNCTIONS (percentage animals developing loss of bladder/hindlimb control) [3]: 0%
CC(=O)Oc1c(C(OC(C)=O)OC(C)=O)c(=O)n(Cc2ccccc2)c2ccccc12 [Formula 1.6] | 8 | 4 | 37 | 32 | IC50 ([4]; first value): 7 µg/mL; IC50 ([4]; second value marked * (repeat)): 8 µg/mL; CC50 [5]: 28 µg/mL

From US5382572A, “Alkyl and acyl substituted quinolines” (Schering Corporation, priority 1993, dated 1995)
